This is an account of results in US4980474A, “Apovincaminic acid derivatives” (Taisho Pharmaceutical Co., Ltd., priority 1988, dated 1990).

For one test, the system named is femoral artery. The test is described as follows: Effect on increase of blood flow, femoral artery (anesthetized dogs). The class given is in vivo. Conditions: 50 μg/kg intraarterially. The protocol: (§1) Effect on increase of blood flow was examined using dogs anesthetized with 5% pentbarbital sodium (30 mg/kg). The drugs [2-nitroxyethyl (+)-apovincaminate and 3-nitroxyl-n-propyl apovincaminate of the present invention and ethyl (+)-apovincaminate as control] were administered intraarterially in an amount of each 50 μg/kg, comparisons were made of the blood flows in the femoral artery, vertebral artery and common coronary artery before and after administration of the drugs, and the increase ratios of the blood flows were expressed by percent in Table 1.

The next test deals with vertebral artery. The test is described as follows: Effect on increase of blood flow, vertebral artery (anesthetized dogs). The class given is in vivo. Conditions: 50 μg/kg intraarterially. The protocol: as §1
The test system of another test is common coronary artery. The test is described as follows: Effect on increase of blood flow, common coronary artery (anesthetized dogs). The class given is in vivo. Conditions: 50 μg/kg intraarterially. The protocol: as §1
The test system of test [1] is basilar and femoral artery rings, K^+ contraction. In words: Inhibition of basilar and femoral artery contraction induced by K^+. Also noted: species or system Mongrel dogs. The following applies: Canis lupus familiaris; 64 mM K^+; Krebs-Ringer, isolated dog artery rings. The protocol:
(§2) The test was carried out according to the method of Sonia Jancar et al described in European Journal of Pharmacology, vol. 136, page 345 (1987). Mongrel dogs were killed by anesthetization with pentbarvital (60 mg/kg), the brain was rapidly removed, and the basilar artery was dissected. The femoral artery was picked up at the same time. The isolated blood vessel was cut into rings 5 mm wide, which were soaked in 5 ml of a Krebs-Ringer solution under a resting tension of 1 g. The solution was kept with 95% oxygen and 5% carbon dioxide. To each of the solution in which the blood vessel rings were soaked were added 64 mM of potassium ion (K^+), 10^-5 M of norepinefurin (NE) and 10^-6 M of serotonine (5HT), respectively, and the resulting blood contractions were measured by FD pick up. To the blood vessel rings each was administered the drug [2-nitroxyethyl (+)-apovincaminate of the present invention and ethyl (+)-apovincaminate as control], and the concentrations (IC50) required to produce 50% inhibitions of the contractions by the administration of K^+, NE and 5TH, respectively, were measured.

Test [2] relates to spontaneous spindle bursts (abnormal EEG pattern in aged rats). In words: Improvement of abnormalities of electroencephalogram (EEG) in aged rats. The class given is in vivo, male Wistar rats. Conditions: 10 mg/kg intraperitoneally; for Time up to which the spontaneous spindle burst reappeared: aged rats 23-24 months; for increment of the time up to which the spontaneous spindle wave reappeared versus group treated with vitamin C only: number in parentheses. As to the method: Six male Wistar rats (23-24 months old) were used for each group. The electrodes were implanted on the frontal and occipital cortexes and hippocamus, and the rats were housed for 14 days for applying to the test. The rats operated were each put into an acoustically shielded box with the minimum light amount and tamed for 60 minutes while keeping the behavior free, and then the recording of EEG was started. Thirty minutes after the starting the recording of EEG, the drug (used the same as those in Experiment 2) dissolved in 1 ml of an aqueous vitamin C solution was intraperitoneally administered in the amount of 10 mg per 1 kg of the body weight of the rat. The spontaneous spindle bursts (abnormal EEG pattern in aged rats) were disappeared after the intraperitoneal administration and reappeared after a certain time. [Neurobiology of Aging, vol. 7, page 115 (1986)]. The time up to which the spontaneous spindle burst reappeared was measured. Group which received 10% aqueous vitamin C solution only was tested for comparison. Number in parentheses means the increment of the time (minutes) up to which the spontaneous spindle wave reappeared after the drug administration when compared with that of the group treated with vitamin C only.

Test [3] has as its system basilar and femoral artery rings, NE contraction. The test is described as follows: Inhibition of basilar and femoral artery contraction induced by norepinephrine (NE). Also noted: species or system Mongrel dogs. Conditions: Canis lupus familiaris; 10^-5 M norepinephrine; Krebs-Ringer, isolated dog artery rings. The protocol:
as §2

Test [4] has as its system basilar and femoral artery rings, 5HT contraction. In words: Inhibition of basilar and femoral artery contraction induced by serotonin (5HT). The following applies: Canis lupus familiaris; 10^-6 M serotonin; Krebs-Ringer, isolated dog artery rings. Also noted: species or system Mongrel dogs. As to the method: as §2

`CC[C@@]12C=C(C(=O)OCCCO[N+](=O)[O-])n3c4c(c5ccccc53)CCN(CCC1)[C@H]42` [3-Nitroxy-n-propyl (+)-apovincaminate]: the “Increase of blood flow, Femoral artery” value in the test with femoral artery is given as 28.2%. Further, in the test with vertebral artery, the “Increase of blood flow, Bertebral artery” value is recorded as 45.7%. In addition, the “Increase of blood flow, Common coronary artery” value in the test with common coronary artery was determined as 44.3%.
The IC50 is the point on the concentration scale where inhibition reaches its midpoint. Read a high IC50 as lower potency. With `CC[C@@]12C=C(C(=O)OCCO[N+](=O)[O-])n3c4c(c5ccccc53)CCN(CCC1)[C@H]42` [Drug A, 2-nitroxyethyl (+)-apovincaminate], the figures for the IC50 in test [1], in test [3] and in test [4] were 1.17 µM, 22.3 µM and 6.02 µM, respectively. Also, in the test with femoral artery, the “Increase of blood flow, Femoral artery” value amounted to 86.8%. Besides, the “activity relative to drug B (control) in terms of the increment of the time up to which the spontaneous spindle burst reappeared” value in test [2] (aged rats) is reported as “about 3 times”. Besides, the “Time up to which the spontaneous spindle burst reappeared” value in test [2] was found to be 41 min. In test [2] (aged rats), the “increment of the time up to which the spontaneous spindle wave reappeared versus group treated with vitamin C only” value is 31 min. Besides, the “Increase of blood flow, Bertebral artery” value in the test on vertebral artery is given as 72.3%. Further, the “Increase of blood flow, Common coronary artery” value in the test on common coronary artery was 71.1%.
In the case of `CCOC(=O)C1=C[C@]2(CC)CCCN3CCc4c(n1c1ccccc41)[C@@H]32` [Drug B, Ethyl (+)-apovincaminate, reference compound], the IC50 in test [1] is 2.5 µM; in test [3] it was 63.1 µM; in test [4], 100 µM. The “Increase of blood flow, Femoral artery” value in the test on femoral artery came to 14.8%. Further, in test [2], the “Time up to which the spontaneous spindle burst reappeared” value is 21 min. Moreover, the “increment of the time up to which the spontaneous spindle wave reappeared versus group treated with vitamin C only” value in test [2] (aged rats) came to 11 min. For the same compound, the “Increase of blood flow, Bertebral artery” value with vertebral artery was determined as 21.8%. Besides, the “Increase of blood flow, Common coronary artery” value in the test with common coronary artery stood at 15.5%.
